Like-named read-outs stand apart in the source and are kept apart here. Blank lines part the entries; values can stand above or below the compound they belong to.
How the values were obtained:
Type in all cases: cell-based
[1] = test system: HCT-116 (colon cancer cells characterized by wild-type p53); experiment: Anti-proliferation activity against HCT-116 cells; conditions: Homo sapiens
[2] = test system: LNCaP (androgen sensitive prostate cancer cells); experiment: Anti-proliferation activity against LNCaP cells; conditions: Homo sapiens, LNCaP
Procedure, shortened: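 Cells seeded at 2000/well in Advanced DMEM/F12 with 10% FBS and attached overnight, then given compound in 1% DMSO final for 72 h at 37 °C, 5% CO2. Viable cells by MTS/PMS read-out, normalised to 1% DMSO as 100% proliferation. IC50 from separate triplicate experiments.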

[3] = test system: PL45 (pancreatic cancer cells); experiment: Anti-proliferation activity against PL45 cells
[4] = test system: PC-3 (androgen independent prostate cancer cells); experiment: Anti-proliferation activity against PC-3 cells; conditions: for IC50: Homo sapiens, PC-3, read-out: IC50 PC-3
Procedure, shortened: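 Antiproliferative activity was tested in PC-3 androgen-independent prostate cancer cells. Cells grown at 37° C. with 5% CO2 in Advanced DMEM/F12 (1:1) containing non-essential amino acids, 2 mM L-glutamine, streptomycin, penicillin and 10% FBS were plated at 2000/well in 96-well plates. Proliferation was normalized to 1% DMSO controls, and IC50 values from triplicate experiments were fitted in GraphPad Prism.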

[5] = test system: MCF-7 (estrogen receptor positive breast cancer cells); experiment: Anti-proliferation activity against MCF-7 cells (MTS/PMS); conditions: for IC50: Homo sapiens, MCF7, read-out: IC50 MCF-7
Procedure, shortened: (§1)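 Viability after 72 h compound treatment (1% DMSO final, 37° C., 5% CO2) measured by MTS/PMS; plating density 2000 cells/well with overnight attachment.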

[6] = test system: SkBr3 (Her2 overexpressing breast cancer cells); experiment: Anti-proliferation activity against SkBr3 cells (MTS/PMS); conditions: for IC50: Homo sapiens, SK-BR-3
Procedure, shortened: as §1

[7] = test system: cancer cell lines; experiment: Anti-proliferative activity, statements covering several cancer cell lines; conditions: for fold reduced activity versus the compound with a hydrogen at the 5-position: both breast cancer cell lines
Experimental: Upon completion of synthesis of library of compounds in Examples 23 and 24, the compounds were evaluated for anti-proliferative activity against SkBr3 (Her2 overexpressing breast cancer cells), MCF-7 (estrogen receptor positive breast cancer cells), HCT-116 (colon cancer cells characterized by wild-type p53), PL45 (pancreatic cancer cells), LNCaP (androgen sensitive prostate cancer cells) and PC-3 (androgen independent prostate cancer cells) cell lines. […] The monosubstituted benzamide variants improved activity.
(§2) Cells were maintained in a 1:1 mixture of Advanced DMEM/F12 (Gibco) supplemented with non-essential amino acids, L-glutamine (2 mM), streptomycin (500 ng/mL), penicillin (100 units/mL), and 10% FBS. Cells were grown to confluence in a humidified atmosphere (37° C., 5% CO2), seeded (2000/well, 100 μl) in 96-well plates, and allowed to attach overnight. Compound or GDA at varying concentrations in DMSO (1% DMSO final concentration) was added, and cells were returned to the incubator for 72 hours. At 72 hours, the number of viable cells was determined using an MTS/PMS cell proliferation kit (Promega) per the manufacturer's instructions. Cells incubated in 1% DMSO were used at 100% proliferation, and values were adjusted accordingly. IC50 values were calculated from separate experiments performed in triplicate using GraphPad Prism.
as §2, with “μg/mL),” for “ng/mL),”, “μL)” for “μl)”

[8] = test system: Hsp90 client proteins Her2, Raf and Akt in MCF-7 breast cancer cells; experiment: Hsp90 client protein degradation, Western blot in MCF-7 cells
Experimental: FIG. 17 is a western blot analysis of Hsp90 client protein degradation assays against MCF-7 breast cancer cells. The concentration of compound 46 (in μM) is denoted above each lane. Geldamycin and DMSO were used as positive and negative controls, respectively.
In order to provide additional evidence that the growth inhibitory activity manifested by the 2-indoleamide compound 46 resulted from Hsp90 inhibition, 46 was evaluated by its ability to induce degradation of Hsp90-dependent client proteins. […] Since non-Hsp90-dependent substrates such as actin remained unchanged, the inhibition of cell growth was directly correlated to the degradation of Hsp90-dependent client proteins.

[9] = Table 5, heterocyclic analogues, n = 3
[10] = Table 5, heterocyclic analogues, n = 3, read-out: IC50 LNCaP
[11] = Table 5, heterocyclic analogues, n = 3, read-out: IC50 SkBr3
[12] = Table 6, 72 hours, MTS/PMS, mean ± standard deviation, read-out: IC50 LnCaP
[13] = Table 6, 72 hours, MTS/PMS, mean ± standard deviation
[14] = Table 6, 72 hours, MTS/PMS, mean ± standard deviation, read-out: IC50 SKBr3
[15] = Table 4, biaryl analogues, n = 3
[16] = Table 4, biaryl analogues, n = 3, read-out: IC50 SkBr3

- IC50 ([1]; Table 3, n = 3): 3.2 ± 0.5 µM
- IC50 ([2]; Table 3, n = 3, read-out: IC50 LNCaP): 4.5 ± 0.7 µM
- IC50 ([3]; Table 3, n = 3): 3 ± 1 µM
- IC50 ([4]; Table 3, n = 3): 3.9 ± 0.05 µM
- IC50 ([5]; Table 3, n = 3): 4 ± 0.3 µM
- IC50 ([6]; Table 3, n = 3, read-out: IC50 SkBr3): 2.6 ± 0.6 µM
Structure (SMILES): CO[C@@H]1[C@@H](O)[C@@H](O)[C@H](Oc2ccc3cc(NC(=O)/C=C/c4ccccc4)c(=O)oc3c2C)OC1(C)C [compound 25, N-(7-((2R,3R,4S,5R)-3,4-Dihydroxy-5-methoxy-6,6-dimethyltetrahydro-2H-pyran-2-yloxy)-8-methyl-2-oxo-2H-chromen-3-yl)cinnamamide]
- fold increase in inhibitory activity versus the saturated derivative (23) [7]: about 3 fold

- IC50 [1, 9]: 3.5 ± 0.5 µM
- IC50 [2, 10]: 2.3 ± 0.1 µM
- IC50 [3, 9]: 1.8 ± 0.3 µM
- IC50 [4, 9]: 4.8 ± 2.4 µM
- IC50 [5, 9]: 5.3 ± 0.3 µM
- IC50 [6, 11]: 12.2 ± 1.5 µM
Structure (SMILES): CO[C@@H]1[C@@H](O)[C@@H](O)[C@H](Oc2ccc3cc(NC(=O)c4c[nH]c5ccccc45)c(=O)oc3c2C)OC1(C)C [compound 47, N-(7-((2R,3R,4S,5R)-3,4-Dihydroxy-5-methoxy-6,6-dimethyltetrahydro-2H-pyran-2-yloxy)-8-methyl-2-oxo-2H-chromen-3-yl)-1H-indole-3-carboxamide]
- times less effective than compound 46 [7]: 3-10 times

- IC50 [2, 12]: 12.9 ± 4.4 µM
- IC50 [4, 13]: 11.8 ± 1.3 µM
- IC50 [5, 13]: 6.1 ± 1.7 µM
- IC50 [6, 14]: 9 ± 0.8 µM
Structure (SMILES): COc1cc(O[C@@H]2OC(C)(C)[C@H](OC)[C@@H](O)[C@H]2O)c(C)c2oc(=O)c(NC(=O)c3cc4ccccc4[nH]3)cc12 [26l, N-(7-((2R,3R,4S,5R)-3,4-dihydroxy-5-methoxy-6,6-dimethyltetrahydro-2H-pyran-2-yloxy)-5-methoxy-8-methyl-2-oxo-2H-chromen-3-yl)-1H-indole-2-carboxamide]
- fold reduced activity versus the compound with a hydrogen at the 5-position [7]: 15 fold

- IC50 [1, 15]: 5.2 ± 2.1 µM
- IC50 ([2]; Table 4, biaryl analogues, n = 3, read-out: IC50 LNCaP): 6 ± 1 µM
- IC50 [3, 15]: 3.8 ± 1.7 µM
- IC50 [4, 15]: 52.3 ± 34.7 µM
- IC50 [5, 15]: 15.6 ± 6.3 µM
- IC50 [6, 16]: 7.1 ± 0.6 µM
Structure (SMILES): COc1ccccc1-c1cc(C(=O)Nc2cc3ccc(O[C@@H]4OC(C)(C)[C@H](OC)[C@@H](O)[C@H]4O)c(C)c3oc2=O)ccc1OC [compound 32, N-(7-((2R,3R,4S,5R)-3,4-Dihydroxy-5-methoxy-6,6-dimethyltetrahydro-2H-pyran-2-yloxy)-8-methyl-2-oxo-2H-chromen-3-yl)-2′,6-dimethoxybiphenyl-3-carboxamide]
- fold improved inhibition compared to 28 [7]: about 2 fold

- IC50 [2, 12]: 2 ± 0.8 µM
- IC50 [4, 13]: 11.3 ± 2 µM
- IC50 [5, 13]: 82.8 µM
- IC50 [6, 14]: 55.7 ± 6.9 µM
Structure (SMILES): COc1cccc(-c2cc(C(=O)Nc3cc4c(OC)cc(O[C@@H]5OC(C)(C)[C@H](OC)[C@@H](O)[C@H]5O)c(C)c4oc3=O)ccc2OC)c1 [26d, N-(7-((2R,3R,4S,5R)-3,4-dihydroxy-5-methoxy-6,6-dimethyltetrahydro-2H-pyran-2-yloxy)-5-methoxy-8-methyl-2-oxo-2H-chromen-3-yl)-3′,6-dimethoxybiphenyl-3-carboxamide]
- fold reduced activity versus the compound with a hydrogen at the 5-position [7]: 4 fold

- IC50 [1, 15]: 4.7 ± 1.4 µM
- IC50 [3, 15]: 1.4 ± 0.2 µM
- IC50 [4, 15]: 16.6 ± 4.4 µM
- IC50 [5, 15]: 1.5 ± 0.1 µM
- IC50 [6, 16]: 1.5 ± 0.1 µM
Structure (SMILES): COc1ccc(C(=O)Nc2cc3ccc(O[C@@H]4OC(C)(C)[C@H](OC)[C@@H](O)[C@H]4O)c(C)c3oc2=O)cc1-c1ccccc1O [compound 35, N-(7-((2R,3R,4S,5R)-3,4-Dihydroxy-5-methoxy-6,6-dimethyltetrahydro-2H-pyran-2-yloxy)-8-methyl-2-oxo-2H-chromen-3-yl)-2′-hydroxy-6-methoxybiphenyl-3-carboxamide]
- fold improved inhibition compared to 28 [7]: about 8 fold

- IC50 [2, 12]: 67.6 ± 6.3 µM
- IC50 [4, 13]: 73.3 ± 3.7 µM
- IC50 [5, 13]: 13.2 ± 0.6 µM
- IC50 [6, 14]: 38 ± 3 µM
Structure (SMILES): CO[C@@H]1[C@@H](O)[C@@H](O)[C@H](Oc2ccc3cc(NC(=O)c4cc5ccccc5[nH]4)c(=O)oc3c2Cc2ccccc2)OC1(C)C [26m, N-(8-benzyl-7-((2R,3R,4S,5R)-3,4-dihydroxy-5-methoxy-6,6-dimethyltetrahydro-2H-pyran-2-yloxy)-2-oxo-2H-chromen-3-yl)-1H-indole-2-carboxamide]
- fold less active than the 8-methyl derivative ([5]; MCF-7 cells): 23 fold
- fold less active than the 8-methyl analogue ([7]; PC-3 and LnCaP cells): about 4 fold

- IC50 [2, 12]: 1.1 ± 0.1 µM
- IC50 [4, 13]: 2.3 ± 2.9 µM
- IC50 [5, 13]: 9 ± 5.4 µM
- IC50 [6, 14]: 13.9 ± 1.2 µM
Structure (SMILES): COc1cccc(-c2cc(C(=O)Nc3cc4ccc(O[C@@H]5OC(C)(C)[C@H](OC)[C@@H](O)[C@H]5O)c(OC)c4oc3=O)ccc2OC)c1 [26g, N-(7-((2S,3R,4S,5R)-3,4-dihydroxy-5-methoxy-6,6-dimethyltetrahydro-2H-pyran-2-yloxy)-8-methoxy-2-oxo-2H-chromen-3-yl)-3′,6-dimethoxybiphenyl-3-carboxamide]
- fold increased activity versus the 8-methyl derivative ([4]; PC-3 cells): 10 fold
- fold improved activity over its 8-methyl counterpart ([7]; breast cancer cells): 2 fold
- fold increased activity over 8-ethyl 26h ([7]; breast cancer cells): 5 fold

- IC50 [1, 9]: 0.17 ± 0.01 µM
- IC50 [2, 10]: 12.2 µM
- IC50 [3, 9]: 0.47 ± 0.34 µM
- IC50 [4, 9]: 22.3 ± 10.1 µM
- IC50 [5, 9]: 0.57 ± 0.07 µM
- IC50 [6, 11]: 0.37 ± 0.06 µM
Structure (SMILES): CO[C@@H]1[C@@H](O)[C@@H](O)[C@H](Oc2ccc3cc(NC(=O)c4cc5ccccc5[nH]4)c(=O)oc3c2C)OC1(C)C [compound 46, N-(7-((2R,3R,4S,5R)-3,4-Dihydroxy-5-methoxy-6,6-dimethyltetrahydro-2H-pyran-2-yloxy)-8-methyl-2-oxo-2H-chromen-3-yl)-1H-indole-2-carboxamide]
- Hsp90 client proteins Her2, Raf and Akt [8]: degraded in a concentration-dependent manner
- Hsp90 level [8]: induced
- fold increased activity compared to novobiocin ([6]; SkBr3 cells): greater than 500 fold

Reference: patent US9120774B2 (University of Kansas, priority 2009, dated 2015)
